Columns and labels:
[1] = tested on: Uveal melanoma cell lines, 92-1 or MP41; experiment: Comparison to clinical PKC and MEK inhibitors in uveal melanoma cell lines, 3-day growth (Compound A); assay type: cell-based; conditions: FIG. 2A and 2B
Experimental: (§1) Procedure: Uveal melanoma cell lines, 92-1 or MP41, were plated in 96 well plates in the presence of growth media (see Table 26). […] Cells were incubated at 37 degrees Celsius for 3 days. After three days of treatment, cell growth was measured with Cell-titer glow (Promega), and luminescence was read on an Envision plate reader (Perkin Elmer).

[2] = tested on: Uveal melanoma cell lines (92-1, MP41, MP38, MP46), hematologic cancer and other cancer cell lines; experiment: Growth of uveal melanoma, hematological and other cancer cell lines, day 3 and day 7 (Cell-titer glo, GI50), Compound A; assay type: cell-based; conditions: FIG. 1
Experimental: (§2) Procedure: Uveal melanoma cell lines (92-1, MP41, MP38, MP46), prostate cancer cell lines (LNCAP), lung cancer cell lines (NCI-H1299), and immortalized embryonic kidney lines (HEK293T) were plated into 96 well plates with growth media (see Table 5). […] Cells were incubated at 37 degrees Celsius for 3 days. After three days of treatment, the media was removed from the cells and 30 microliters of TrypLE (Gibco) was added to cells for 10 minutes. Cells were detached from the plates and resuspended with the addition of 170 microliters of growth media. Cells from two DMSO-treated control wells were counted, and the initial number of cells plated at the start of the experiment, were re-plated into fresh-compound containing plates for an additional four days at 37 degrees Celsius. At day 7, cells were harvested as described above. On day 3 and day 7, relative cell growth was measured by the addition of Cell-titer glo (Promega) and luminescence was measured on an Envision plate reader (Perkin Elmer). […] At the time of cell splitting on days […], cells were split into new 96 well plates, and fresh compound was added four hours after re-plating.

[3] = tested on: Uveal melanoma cell lines, 92-1 or MP41; experiment: Comparison to clinical PKC and MEK inhibitors in uveal melanoma cell lines, 3-day growth (Compound B); assay type: cell-based; conditions: FIG. 6A and 6B
Experimental: as §1, with “27).” for “26).”, “37° C.” for “37 degrees Celsius”

parental MP41 cells = experiment: 7-day growth inhibition assay, parental cells; assay type: cell-based; conditions: 7-day assay; FIG. 7B
Experimental: as §2
(§3) Procedure: MP41 uveal melanoma cells were made resistant to the PKC inhibitor (LXS196; MedChemExpress), by long-term culture in growth media (see Table 27) containing increasing concentrations of the compound, up to 1 micromolar.

[4] = tested on: PKC inhibitor (PKCi)-resistant MP41 uveal melanoma cells; experiment: 7-day growth inhibition assay, PKC inhibitor-resistant cells; assay type: cell-based; conditions: 7-day assay
Experimental: as §2, §3

[5] = tested on: Uveal melanoma cell lines (92-1, MP41, MP38, MP46) and Non-small cell lung cancer cells (NCIH1299); experiment: Growth of uveal melanoma and non-small cell lung cancer cell lines, 3 days (Cell-titer glow); assay type: cell-based; conditions: 0 to 10 micromolar, FIG. 5
Experimental: Procedure: Uveal melanoma cell lines (92-1, MP41, MP38, MP46) and Non-small cell lung cancer cells (NCIH1299) were plated into 96 well plates with growth media (see Table 27). BRG1/BRM ATPase inhibitor, compound 67, was dissolved in DMSO and added to the cells in a concentration gradient from 0 to 10 micromolar at the time of plating. Cells were incubated at 37° C. for 3 days. After three days of treatment, cell growth was measured with Cell-titer glow (Promega), and luminescence was read on an Envision plate reader (Perkin Elmer).

[6] = Body weight / tolerability in tumor-bearing mice; assay type: in vivo; conditions: all treatments, once daily oral gavage, 3 weeks; FIG. 8C
Experimental: Procedure: Nude mice (Envigo) were engrafted subcutaneously in the axillary region with 5×10^6 92-1 uveal melanoma cells in 50% Matrigel. Tumors were grown to a mean of ˜200 mm^3, at which point mice were grouped and dosing was initiated. […] Tumor volumes and body weights were measured over the course of 3 weeks, and doses were adjusted by body weight to achieve the proper dose in terms of mg/kg. At this time, animals were sacrificed, and tumors were dissected and imaged.

CSCC[C@H](NC(=O)c1ccc(N)cc1)C(=O)Nc1nc(-c2cccc(-c3ccncc3)c2)cs1 [Compound A]
growth inhibition compared to clinical PKC (LXS196) and MEK (Selumetinib) inhibitors ([1]; 3 days, 0 to 10 micromolar): comparable growth inhibition of uveal melanoma cells as the clinical PKC and MEK inhibitors | onset of inhibition compared to clinical PKC and MEK inhibitors [1]: faster onset of inhibition than the clinical PKC and MEK inhibitors | sensitivity of cell lines to BRG1/BRM inhibition (growth) ([2]; uveal melanoma and hematologic cancer cell lines vs other tested cell lines, 0 to 10 micromolar): more sensitive to BRG1/BRM inhibition than the other tested cell lines | duration of growth inhibition ([2]; uveal melanoma and hematologic cancer cell lines): maintained through day 7

CSCC[C@H](NC(=O)c1ccn(S(C)(=O)=O)c1)C(=O)Nc1nc(-c2cccc(-c3ccncc3)c2)cs1 [Compound B, (S)-1-(methylsulfonyl)-N-(4-(methylthio)-1-oxo-1-((4-(3-(pyridin-4-yl)phenyl)thiazol-2-yl)amino)butan-2-yl)-1H-pyrrole-3-carboxamide]
growth inhibition compared to clinical PKC (LXS196) and MEK (Selumetinib) inhibitors ([3]; 3 days, 0 to 10 micromolar): more potent effects on growth inhibition of uveal melanoma cells as compared to the clinical PKC and MEK inhibitors | onset of growth inhibition compared to clinical PKC and MEK inhibitors [3]: faster onset of growth inhibition than the clinical PKC and MEK inhibitors | growth inhibition of parental cell line (parental MP41 cells): strong growth inhibition | growth inhibition of PKCi-resistant cell line ([4]; FIG. 7B): strong growth inhibition | sensitivity of PKCi-resistant cells relative to parental MP41 cells ([4]; FIG. 7B): more sensitive to Compound B than were the parental MP41 cells | growth inhibition in the uveal melanoma cell lines [5]: potent growth inhibition

C[C@@H]1CN(c2cccc(-c3csc(NC(=O)CNC(=O)c4ccn(C(C)(C)C)c4)n3)n2)C[C@H](C)O1 [Compound C, 1-(tert-butyl)-N-(2-((4-(6-(cis-2,6-dimethylmorpholino)pyridin-2-yl)thiazol-2-yl)amino)-2-oxoethyl)-1H-pyrrole-3-carboxamide]
tolerability / body weight change [6]: well tolerated with no body weight loss observed

CC1(N)CCN(c2cccnc2NC(=O)c2nc(-c3ncccc3C(F)(F)F)cnc2N)CC1 [LXS196, reference compound]
tolerated concentration for growth, PKCi-resistant vs parental cells ([4]; FIG. 7A): could tolerate growth at higher concentrations of LXS196 than could the parental MP41 cell line

Source: patent publication US12441726B2, “Compounds and uses thereof” (Foghorn Therapeutics Inc., priority 2020, dated 2025)
